Source: patent US10556943B2, “HLA-DR binding peptides and their uses” (priority 2007, dated 2020)

What was measured:
patient-derived PBMC = assay: 10-day interferon-gamma ELIspot on PBMC of patients and healthy donors; assay type: cell-based, human; details: for % = Percent of patients with responses: ELIspot, patients with either breast or ovarian cancer
From the text: Enzyme-linked immunosorbent spot assay.
An interferon-gamma ELIspot assay was used to assess immunity to the indiscriminate binding peptides in 48 patients with either breast or ovarian cancer and 18 healthy controls.
Using an ELIspot assay with a limit of detection of approximately 1:100,000 antigen-specific T cells per million PBMC, patient-derived PBMC were screened for reactivity against all of the HLA-DR binding peptides.

short term T cell lines = assay: IFN-γ ELISpot analysis of short term T cell lines (natural processing); assay type: cell-based, human; details: T cell lines respond to peptide and protein fragment; FIGS. 5, 6

Row | SMILES | naturally processed and presented antigen (short term T cell lines) | other results
1 | CC[C@H](C)[C@H](N)C(=O)N[C@@H](CCCCN)C(=O)N[C@@H](Cc1c[nH]c2ccccc12)C(=O)N[C@@H](CCSC)C(=O)N[C@@H](C)C(=O)N[C@@H](CC(C)C)C(=O)N[C@@H](CCC(=O)O)C(=O)N[C@@H](CO)C(=O)N[C@H](C(=O)N[C@@H](CC(C)C)C(=O)N[C@@H](CCCNC(=N)N)C(=O)N[C@@H](CCCNC(=N)N)C(=O)N[C@@H](CCCNC(=N)N)C(=O)N[C@@H](Cc1ccccc1)C(=O)N[C@H](C(=O)O)[C@@H](C)O)[C@@H](C)CC [Peptide 9019.0003] | – | fraction of patients that had mean T cell values above the cutoff (patient-derived PBMC; FIG. 1, cutoff = mean and two standard deviations of normal healthy individuals): 4%; patient response rate on exclusion of one healthy individual's data point (patient-derived PBMC; FIG. 1, robust healthy responder excluded from cutoff): 15%
2 | CC[C@H](C)[C@H](NC(=O)[C@H](CCCNC(=N)N)NC(=O)[C@H](CC(C)C)NC(=O)[C@H](CCCNC(=N)N)NC(=O)[C@H](CCC(N)=O)NC(=O)[C@H](CC(C)C)NC(=O)[C@@H]1CCCN1C(=O)[C@@H](NC(=O)[C@H](CCC(N)=O)NC(=O)[C@H](CCCNC(=N)N)NC(=O)[C@@H](NC(=O)[C@H](CCC(N)=O)NC(=O)[C@H](CC(N)=O)NC(=O)[C@@H](N)Cc1c[nH]cn1)C(C)C)C(C)C)C(=O)N[C@H](C(=O)O)C(C)C [Peptide 9019.0034] | naturally processed and presented antigens | –
3 | CC[C@H](C)[C@H](NC(=O)[C@@H](NC(=O)[C@H](CC(C)C)NC(=O)[C@H](CCCCN)NC(=O)[C@H](C)NC(=O)[C@@H](NC(=O)[C@@H](NC(=O)[C@@H]1CCCN1C(=O)[C@@H]1CCCN1C(=O)[C@H](CC(N)=O)NC(=O)[C@H](Cc1c[nH]c2ccccc12)NC(=O)[C@H](Cc1ccccc1)NC(=O)[C@@H](NC(=O)[C@H](CC(C)C)NC(=O)[C@@H](N)CC(C)C)[C@@H](C)O)[C@@H](C)O)[C@@H](C)O)[C@@H](C)O)C(=O)O [Peptide 9019.0105] | – | % = Percent of patients with responses (patient-derived PBMC): 17%
4 | CC(C)C[C@H](NC(=O)[C@H](CC(N)=O)NC(=O)[C@H](CO)NC(=O)[C@@H](NC(=O)[C@H](Cc1ccccc1)NC(=O)[C@H](CS)NC(=O)[C@H](C)NC(=O)[C@@H](N)Cc1ccc(O)cc1)C(C)C)C(=O)N[C@@H](C)C(=O)N[C@H](C(=O)NCC(=O)N[C@@H](CCCNC(=N)N)C(=O)N[C@@H](CC(N)=O)C(=O)N[C@@H](CC(N)=O)C(=O)N[C@@H](CO)C(=O)O)[C@@H](C)O [Peptide 9019.0141] | – | % = Percent of patients with responses (patient-derived PBMC): 25%
5 | CC(C)C[C@H](NC(=O)[C@H](CC(C)C)NC(=O)[C@H](CC(C)C)NC(=O)[C@H](CC(C)C)NC(=O)[C@H](CC(C)C)NC(=O)[C@H](CC(C)C)NC(=O)[C@@H]1CCCN1C(=O)[C@H](CC(C)C)NC(=O)[C@H](CC(C)C)NC(=O)[C@@H]1CCCN1C(=O)[C@H](CC(C)C)NC(=O)[C@@H](N)CC(C)C)C(=O)NCC(=O)N[C@@H](C)C(=O)N[C@@H](CO)C(=O)O [Peptide 9019.0176] | naturally processed peptides | –
6 | CC(C)C[C@H](NC(=O)[C@H](CC(C)C)NC(=O)[C@H](CC(C)C)NC(=O)[C@H](CC(C)C)NC(=O)[C@H](CC(C)C)NC(=O)[C@H](CC(C)C)NC(=O)[C@@H]1CCCN1)C(=O)NCC(=O)N[C@@H](C)C(=O)N[C@@H](CO)C(=O)NCC(=O)NCC(=O)NCC(=O)NCC(=O)NCC(=O)O [Peptide 9019.0177] | naturally processed peptides | –
7 | CC[C@H](C)[C@H](NC(=O)[C@H](CC(C)C)NC(=O)[C@H](CCCCN)NC(=O)CNC(=O)[C@@H](N)[C@@H](C)O)C(=O)N[C@@H](CCC(N)=O)C(=O)NCC(=O)N[C@@H](C)C(=O)N1CCC[C@H]1C(=O)N[C@H](C(=O)N[C@H](C(=O)N[C@@H](CCCNC(=N)N)C(=O)NCC(=O)N[C@@H](CC(=O)O)C(=O)N1CCC[C@H]1C(=O)O)[C@@H](C)CC)[C@@H](C)O [Peptide 9019.0192] | naturally processed peptides | –
